Test results: ChEMBL document CHEMBL3867433, “Synthesis and antimicrobial activity of styryl/pyrrolyl/pyrazolyl sulfonylmethyl-1,3,4-oxadiazolyl amines and styryl/pyrrolyl/pyrazolyl sulfonylmethyl-1,3,4-thiadiazolyl amines” (2016)
Values after ≈ are worked out from the molar mass of the structure shown.

Experiments:
Format in all cases: functional
[1] = Antifungal activity against Penicillium chrysogenum assessed as inhibition of spore germination at 100 ug/well after 48 hrs by agar well diffusion method
Klebsiella pneumoniae [2] = test: Antibacterial activity against Klebsiella pneumoniae at 100 ug/well after 24 hrs by agar well diffusion method; settings: read-out: DIZ
Bacillus subtilis [3] = test: Antibacterial activity against Bacillus subtilis at 12.5 ug/well after 24 hrs by agar well diffusion method; settings: read-out: DIZ
Pseudomonas aeruginosa [4] = test: Antibacterial activity against Pseudomonas aeruginosa at 25 ug/well after 24 hrs by agar well diffusion method; settings: read-out: DIZ
Bacillus subtilis [5] = test: Bactericidal activity against Bacillus subtilis after 24 hrs
Aspergillus niger [6] = test: Antifungal activity against Aspergillus niger assessed as inhibition of spore germination after 48 hrs by broth dilution method
Bacillus subtilis [7] = test: Antibacterial activity against Bacillus subtilis at 50 ug/well after 24 hrs by agar well diffusion method; settings: read-out: DIZ
Penicillium chrysogenum [8] = test: Ratio of MFC to MIC for Penicillium chrysogenum
Aspergillus niger [9] = test: Antifungal activity against Aspergillus niger assessed as inhibition of spore germination at 25 ug/well after 48 hrs by agar well diffusion method; settings: read-out: DIZ
Staphylococcus aureus [10] = test: Antibacterial activity against Staphylococcus aureus after 24 hrs by broth dilution method
Staphylococcus aureus [11] = test: Bactericidal activity against Staphylococcus aureus after 24 hrs
Klebsiella pneumoniae [12] = test: Antibacterial activity against Klebsiella pneumoniae at 25 ug/well after 24 hrs by agar well diffusion method; settings: read-out: DIZ
Staphylococcus aureus [13] = test: Antibacterial activity against Staphylococcus aureus at 50 ug/well after 24 hrs by agar well diffusion method; settings: read-out: DIZ
Staphylococcus aureus [14] = test: Antibacterial activity against Staphylococcus aureus at 12.5 ug/well after 24 hrs by agar well diffusion method; settings: read-out: DIZ
Klebsiella pneumoniae [15] = test: Bactericidal activity against Klebsiella pneumoniae after 24 hrs
Pseudomonas aeruginosa [16] = test: Antibacterial activity against Pseudomonas aeruginosa after 24 hrs by broth dilution method
Staphylococcus aureus [17] = test: Antibacterial activity against Staphylococcus aureus at 100 ug/well after 24 hrs by agar well diffusion method; settings: read-out: DIZ
Pseudomonas aeruginosa [18] = test: Antibacterial activity against Pseudomonas aeruginosa at 100 ug/well after 24 hrs by agar well diffusion method; settings: read-out: DIZ
Aspergillus niger [19] = test: Antifungal activity against Aspergillus niger assessed as inhibition of spore germination at 50 ug/well after 48 hrs by agar well diffusion method; settings: read-out: DIZ
Aspergillus niger [20] = test: Antifungal activity against Aspergillus niger assessed as inhibition of spore germination at 12.5 ug/well after 48 hrs by agar well diffusion method; settings: read-out: DIZ
Pseudomonas aeruginosa [21] = test: Bactericidal activity against Pseudomonas aeruginosa after 24 hrs
Aspergillus niger [22] = test: Antifungal activity against Aspergillus niger assessed as inhibition of spore germination at 100 ug/well after 48 hrs by agar well diffusion method; settings: read-out: DIZ
Pseudomonas aeruginosa [23] = test: Antibacterial activity against Pseudomonas aeruginosa at 12.5 ug/well after 24 hrs by agar well diffusion method; settings: read-out: DIZ
Bacillus subtilis [24] = test: Antibacterial activity against Bacillus subtilis at 100 ug/well after 24 hrs by agar well diffusion method; settings: read-out: DIZ
Klebsiella pneumoniae [25] = test: Antibacterial activity against Klebsiella pneumoniae after 24 hrs by broth dilution method
Pseudomonas aeruginosa [26] = test: Antibacterial activity against Pseudomonas aeruginosa at 50 ug/well after 24 hrs by agar well diffusion method; settings: read-out: DIZ
[27] = Antifungal activity against Penicillium chrysogenum assessed as inhibition of spore germination at 12.5 ug/well after 48 hrs by agar well diffusion method
Bacillus subtilis [28] = test: Antibacterial activity against Bacillus subtilis at 25 ug/well after 24 hrs by agar well diffusion method; settings: read-out: DIZ
Staphylococcus aureus [29] = test: Antibacterial activity against Staphylococcus aureus at 25 ug/well after 24 hrs by agar well diffusion method; settings: read-out: DIZ
[30] = Antifungal activity against Penicillium chrysogenum assessed as inhibition of spore germination after 48 hrs by broth dilution method
Penicillium chrysogenum [31] = test: Fungicidal activity against Penicillium chrysogenum assessed as inhibition of spore germination after 48 hrs
Klebsiella pneumoniae [32] = test: Antibacterial activity against Klebsiella pneumoniae at 12.5 ug/well after 24 hrs by agar well diffusion method; settings: read-out: DIZ
Pseudomonas aeruginosa [33] = test: Ratio of MBC to MIC for Pseudomonas aeruginosa
[34] = Antifungal activity against Penicillium chrysogenum assessed as inhibition of spore germination at 50 ug/well after 48 hrs by agar well diffusion method
Klebsiella pneumoniae [35] = test: Antibacterial activity against Klebsiella pneumoniae at 50 ug/well after 24 hrs by agar well diffusion method; settings: read-out: DIZ
[36] = Antifungal activity against Penicillium chrysogenum assessed as inhibition of spore germination at 25 ug/well after 48 hrs by agar well diffusion method
Aspergillus niger [37] = test: Fungicidal activity against Aspergillus niger assessed as inhibition of spore germination after 48 hrs
Bacillus subtilis [38] = test: Antibacterial activity against Bacillus subtilis after 24 hrs by broth dilution method

Structure (SMILES): Nc1nnc(CS(=O)(=O)/C=C\c2ccc(Cl)cc2)s1
- inhibition zone (IZ) [1]: 41 mm
- zone of inhibition at 100 µg/disc (Klebsiella pneumoniae [2]): 38 mm
- zone of inhibition at 12.5 µg/disc (Bacillus subtilis [3]): 28 mm
- zone of inhibition at 25 µg/disc (Pseudomonas aeruginosa [4]): 26 mm
- MBC (Bacillus subtilis [5]): 100 mg/L (≈ 317 µM)
- MIC (Aspergillus niger [6]): 12.5 mg/L (≈ 39.6 µM)
- zone of inhibition at 50 µg/disc (Bacillus subtilis [7]): 30 mm
- Ratio (Penicillium chrysogenum [8]): 2
- zone of inhibition at 25 µg/disc (Aspergillus niger [9]): 29 mm
- MIC (Staphylococcus aureus [10]): 25 mg/L (≈ 79.2 µM)
- MBC (Staphylococcus aureus [11]): > 100 mg/L
- zone of inhibition at 25 µg/disc (Klebsiella pneumoniae [12]): 34 mm
- zone of inhibition at 50 µg/disc (Staphylococcus aureus [13]): 24 mm
- zone of inhibition at 12.5 µg/disc (Staphylococcus aureus [14]): 22 mm
- MBC (Klebsiella pneumoniae [15]): 50 mg/L (≈ 158 µM)
- MIC (Pseudomonas aeruginosa [16]): 6.25 mg/L (≈ 19.8 µM)
- zone of inhibition at 100 µg/disc (Staphylococcus aureus [17]): 26 mm
- zone of inhibition at 100 µg/disc (Pseudomonas aeruginosa [18]): 34 mm
- zone of inhibition at 50 µg/disc (Aspergillus niger [19]): 31 mm
- zone of inhibition at 12.5 µg/disc (Aspergillus niger [20]): 27 mm
- MBC (Pseudomonas aeruginosa [21]): 12.5 mg/L (≈ 39.6 µM)
- zone of inhibition at 100 µg/disc (Aspergillus niger [22]): 32 mm
- zone of inhibition at 12.5 µg/disc (Pseudomonas aeruginosa [23]): 24 mm
- zone of inhibition at 100 µg/disc (Bacillus subtilis [24]): 32 mm
- MIC (Klebsiella pneumoniae [25]): 12.5 mg/L (≈ 39.6 µM)
- zone of inhibition at 50 µg/disc (Pseudomonas aeruginosa [26]): 28 mm
- inhibition zone (IZ) [27]: 34 mm
- zone of inhibition at 25 µg/disc (Bacillus subtilis [28]): 29 mm
- zone of inhibition at 25 µg/disc (Staphylococcus aureus [29]): 23 mm
- MIC [30]: 12.5 mg/L (≈ 39.6 µM)
- MFC (Penicillium chrysogenum [31]): 25 mg/L (≈ 79.2 µM)
- zone of inhibition at 12.5 µg/disc (Klebsiella pneumoniae [32]): 32 mm
- Ratio (Pseudomonas aeruginosa [33]): 2
- inhibition zone (IZ) [34]: 37 mm
- zone of inhibition at 50 µg/disc (Klebsiella pneumoniae [35]): 36 mm
- inhibition zone (IZ) [36]: 35 mm
- MFC (Aspergillus niger [37]): 50 mg/L (≈ 158 µM)
- MIC (Bacillus subtilis [38]): 25 mg/L (≈ 79.2 µM)

Structure (SMILES): Nc1nnc(CS(=O)(=O)c2n[nH]cc2-c2ccc(Cl)cc2)s1
- inhibition zone (IZ) [1]: 38 mm
- zone of inhibition at 100 µg/disc (Klebsiella pneumoniae [2]): 36 mm
- zone of inhibition at 12.5 µg/disc (Bacillus subtilis [3]): 26 mm
- zone of inhibition at 25 µg/disc (Pseudomonas aeruginosa [4]): 26 mm
- MBC (Bacillus subtilis [5]): 100 mg/L (≈ 281 µM)
- MIC (Aspergillus niger [6]): 25 mg/L (≈ 70.3 µM)
- zone of inhibition at 50 µg/disc (Bacillus subtilis [7]): 28 mm
- Ratio (Penicillium chrysogenum [8]): >2
- zone of inhibition at 25 µg/disc (Aspergillus niger [9]): 26 mm
- MIC (Staphylococcus aureus [10]): 50 mg/L (≈ 141 µM)
- MBC (Staphylococcus aureus [11]): 200 mg/L (≈ 562 µM)
- zone of inhibition at 25 µg/disc (Klebsiella pneumoniae [12]): 32 mm
- zone of inhibition at 50 µg/disc (Staphylococcus aureus [13]): 23 mm
- zone of inhibition at 12.5 µg/disc (Staphylococcus aureus [14]): 21 mm
- MBC (Klebsiella pneumoniae [15]): > 100 mg/L
- MIC (Pseudomonas aeruginosa [16]): 12.5 mg/L (≈ 35.1 µM)
- zone of inhibition at 100 µg/disc (Staphylococcus aureus [17]): 25 mm
- zone of inhibition at 100 µg/disc (Pseudomonas aeruginosa [18]): 31 mm
- zone of inhibition at 50 µg/disc (Aspergillus niger [19]): 28 mm
- zone of inhibition at 12.5 µg/disc (Aspergillus niger [20]): 24 mm
- MBC (Pseudomonas aeruginosa [21]): 50 mg/L (≈ 141 µM)
- zone of inhibition at 100 µg/disc (Aspergillus niger [22]): 30 mm
- zone of inhibition at 12.5 µg/disc (Pseudomonas aeruginosa [23]): 24 mm
- zone of inhibition at 100 µg/disc (Bacillus subtilis [24]): 30 mm
- MIC (Klebsiella pneumoniae [25]): 25 mg/L (≈ 70.3 µM)
- zone of inhibition at 50 µg/disc (Pseudomonas aeruginosa [26]): 28 mm
- inhibition zone (IZ) [27]: 31 mm
- zone of inhibition at 25 µg/disc (Bacillus subtilis [28]): 27 mm
- zone of inhibition at 25 µg/disc (Staphylococcus aureus [29]): 22 mm
- MIC [30]: 12.5 mg/L (≈ 35.1 µM)
- MFC (Penicillium chrysogenum [31]): 50 mg/L (≈ 141 µM)
- zone of inhibition at 12.5 µg/disc (Klebsiella pneumoniae [32]): 30 mm
- Ratio (Pseudomonas aeruginosa [33]): >2
- inhibition zone (IZ) [34]: 35 mm
- zone of inhibition at 50 µg/disc (Klebsiella pneumoniae [35]): 34 mm
- inhibition zone (IZ) [36]: 33 mm
- MFC (Aspergillus niger [37]): 100 mg/L (≈ 281 µM)
- MIC (Bacillus subtilis [38]): 25 mg/L (≈ 70.3 µM)
